The values below come from ChEMBL document CHEMBL1141328, “Biologically active aspidofractinine, rhazinilam, akuammiline, and vincorine alkaloids from Kopsia” (J Nat Prod, 2007).

Structures are written as SMILES.

Holding throughout (type): functional, cell-based
Assay [1] in a line: Cytotoxicity against vincristine-resistant human KB/VJ300 cells.
Assay [2] concerns KB. Kind of assay: Cytotoxicity against vincristine-resistant human KB cells.
Assay [3] is described as follows: Cytotoxicity against vincristine-resistant human KB/VJ300 cells in presence of 0.121 uM vincristine.
In assay [4] the test system is KB. Kind of assay: Cytotoxicity against human KB cells.
Assay [5] is described as follows: Cytotoxicity against human KB/VJ300 cells.

One may read the IC50 as the concentration that gives 50% inhibition. For `COC(=O)[C@H]1C[C@@]23CCCN4CC[C@@]5(c6ccccc6N[C@]15CC2)[C@@H]43`, the IC50 (in assay [1]; with KB [2]; in assay [3]) was > 25 µg/mL in each case.

Take `C/C=C1/CN2CC[C@]34C(=Nc5ccccc53)[C@@H]2C[C@H]1C4(C(=O)OC)C(=O)OC(C)=O` (stereo partly specified): the IC50 (in assay [1]; with KB [2]; in assay [3]) was > 25 µg/mL in each case.

As for `C/C=C1/CN(C=O)[C@H]2C[C@H]1C(C(=O)OC)[C@@]13CCO[C@@]21Nc1ccccc13` (stereo partly specified) [ASPIDOPHYLLINE A], the IC50 was > 25 µg/mL in assay [1], > 25 µg/mL in the assay on KB [2] and 29.1 µM in assay [3].

As to `COC(=O)N1c2ccccc2[C@@]23CCN4CC=C[C@]5(CC[C@]12C(O)(C(=O)OC)C5O)[C@H]43` (stereo partly specified) [KOPSILOSCINE A], the IC50 in assay [1] was 42.3 µM; with KB [2], 45.8 µM; in assay [3] it was 8.9 µM.

In the case of `COC(=O)N1c2ccccc2[C@@]23CCN4CCC[C@]5(CC[C@]12[C@](O)(C(=O)OC)[C@H]5O)[C@H]43` [KOPSILOSCINE B], the IC50 is > 25 µg/mL in assay [1], > 25 µg/mL in the assay with KB [2] and 11.7 µM in assay [3].

For the compound `COC(=O)N1c2ccccc2[C@@]23CCN4CC[C@H](O)[C@@]5(CC[C@]12[C@](O)(C(=O)OC)[C@H]5O)[C@H]43` [KOPSILOSCINE C], the IC50 (in assay [1]; in the assay with KB [2]; in assay [3]) was > 25 µg/mL throughout.

Turning to `COC(=O)N1c2ccc(OC)cc2[C@@]23CCN4CCC[C@]5(CC[C@]12[C@](O)(C(=O)OC)[C@H]5O)[C@H]43` [KOPSILOSCINE D], the IC50 in assay [1] was > 25 µg/mL; in the assay with KB [2] it was > 25 µg/mL; in assay [3] it was 25.1 µM.

On to `COC(=O)N1c2ccc(OC)cc2[C@@]23CCN4CC[C@H](O)[C@@]5(CC[C@]12[C@](O)(C(=O)OC)[C@H]5O)[C@H]43` [KOPSILOSCINE E], for which the IC50 (in assay [1]; in the assay with KB [2]; in assay [3]) was > 25 µg/mL each time.

`COC(=O)N1c2c(OC)cccc2[C@@]23CCN4CC[C@H](O)[C@@]5(CC[C@]12[C@](O)(C(=O)OC)[C@H]5O)[C@H]43` [KOPSILOSCINE F]: the IC50 (in assay [1]; with KB [2]; in assay [3]) was > 25 µg/mL each time.

In the case of `CC[C@]12CCCn3c(C=O)cc(c31)-c1ccccc1NC(=O)CC2` [RHAZINAL], the results for the IC50 (in assay [1]; with KB [2]; in assay [3]) were 0.76 µM, 0.73 µM and 0.93 µM, respectively.

Turning to `CC[C@@]12CCC(=O)Nc3ccccc3-c3ccn(c31)C(=O)CC2` [RHAZINICINE], the IC50 came out at 8.12 µM in assay [1], 4.06 µM with KB [2] and 6.01 µM in assay [3].

As to `CC[C@]12CCCn3ccc(c31)-c1ccccc1NC(=O)CC2` [RHAZINILAM], the IC50 was 0.83 µM in assay [1], 0.65 µM in the assay with KB [2] and 1.16 µM in assay [3].

Turning to `C/C=C1/CN2CC[C@@]34c5ccccc5C[C@@]23CC[C@H]1C4(CO)C(=O)OC` (stereo partly specified) [VINCOPHYLLINE], the IC50 (in assay [1]; in the assay with KB [2]; in assay [3]) was > 25 µg/mL each time.

`CC[C@]1(O)C[C@H]2CN(CCc3c([nH]c4ccccc34)[C@@](C(=O)OC)(c3cc4c(cc3OC)N(C=O)[C@H]3[C@@](O)(C(=O)OC)[C@H](OC(C)=O)[C@]5(CC)C=CCN6CC[C@]43[C@@H]65)C2)C1` [VINCRISTINE]: the IC50 was found to be 0.0028 µM in the assay with KB [4] and 1.2 µM in assay [5].
